Legend:
[1] = test system: rice roots; details: derivatives of momilactones A and B; Kato et al., Phytochemistry 16, 1977; cited from earlier work
[2] = test system: lettuce seeds; details: derivatives of momilactones A and B; Kato et al., Phytochemistry 16, 1977; cited from earlier work
[3] = test system: duckweed (Lemna paucicostata Hegelm 381); assay: Bioactivity assay using duckweed (Lemna assay); type: in vivo; details: 5 days; for Visual injury symptoms (%): scale 0 (no effect) to 100 (complete death)
Experimental: (§1) The momilactones thus isolated and purified according to the method were dissolved in acetone containing a non-ionic surfactant, Tween-20, and diluted with ½ hunter medium, thus generating a growth/germination inhibition solution. The solution contained acetone and Tween-20 in final concentrations of 1% and 0.01% by weight, respectively. The acetone and Tween-20 were found not to cause growth or germination inhibition.
After 2 ml of the growth/germination inhibition solution, prepared in Example, was aliquotted in triplets into a 24-well plate, one duckweed plant having four fronds was transplanted into each well. The plate was incubated in a growth chamber (26° C., 14 h photoperiod, 50 μmol/m^2s) for 5 days. Herbicidal activity was determined by visual scoring and by measuring the chlorophyll content.
The chlorophyll was extracted in DMSO (dimethyl sulfoxide), and absorbance was measured using a UV-VIS spectrophotometer. The chlorophyll content was determined based on the absorbance data according to a method described by Hiscox and Israelstam (Hiscox, J. D. and Israelstam, G. F., Can. J. Bot., 57, 1332-1334, 1979).
The inhibitory effects of the compounds on chlorophyll content in duckweed were expressed as a percentage (%) of the corresponding values obtained for a control.
Thus, a minus value indicates growth stimulation, and a plus value indicates growth inhibition. • Chlorophyll content (μg/ml)=2.367×(absorbance)^2+6.299×absorbance+0.169 (r=0.999) • Inhibition of chlorophyll content (%)=[(control-test group)/control]×100

[4] = test system: Leptochloa chinensis (L.) Ness; assay: Germination assay in culture tube (GACT), Leptochloa chinensis seeds; type: in vivo; details: II: Leptochloa chinensis (L.) Ness, seven days
Experimental: as §1
(§2) Seeds of three weed species, Leptochloa chinensis L., Amaranthus retroflexus L. and Cyperus difformis L., which were collected on October 2002 and stored at −35° C. after floating matter was removed using distilled water, were used in this test.
(§3) The weed seeds were surface-sterilized in a 1:10 (v/v) dilution of an aqueous hypochlorite solution for 10 min and washed with distilled water several times according to a method described by Choi et al. (CHOI, J. S. et al., Korean J. Weed Sci., 22, 339-413, 2002).
(§4) 650 mg of sea sand was placed into disposable culture tubes (12×75 mm), which contained the growth/germination inhibition solution at concentrations of 4, 20, 100 and 1000 ppm. 2 mg of each seed of the three weed species was added to the tubes, and was then incubated in a growth chamber (25° C., 12 h photoperiod, 20 μmol/m^2s).
(§5) After seven days, percentage germination of the weed seeds was determined. Using the percentage germination, the inhibitory effects of the growth/germination inhibition solution on germination and fresh weight of the seeds were evaluated. • Germination inhibition (%)=[(control−test group)/control]×100 • Fresh weight inhibition (%)=[(control−test group)/control]×100

[5] = test system: Amaranthus retroflexus L.; assay: Germination assay in culture tube (GACT), Amaranthus retroflexus seeds; type: in vivo; details: III: Amaranthus retroflexus L., seven days
Experimental: as §1, §2, §3, §4, §5

[6] = test system: Cyperus difformis L.; assay: Germination assay in culture tube (GACT), Cyperus difformis seeds; type: in vivo; details: I: Cyperus difformis L., seven days
Experimental: as §1, §2, §3, §4, §5

[7] = test system: three weed species, Leptochloa chinensis L., Amaranthus retroflexus L. and Cyperus difformis L.; assay: Germination assay in culture tube (GACT), three weed species taken together; type: in vivo; details: 20 ppm
Experimental: as §1, §2
The weed seeds were surface-sterilized in a 1:10 (v/v) dilution of an aqueous hypochlorite solution for 10 min and washed with distilled water several times according to a method described by Choi et al. (CHOI, J. S. et al., Korean J. Weed Sci., 22, 339-413, 2002). […]
as §5

[8] = test system: rice seedlings; details: Kato-Naguchi et al., Physiologia Plantarum 115, 2002; cited from earlier work

For 3-hydro momilactone A, the “inhibition of the growth of rice roots” value [1] is given as “strongest inhibitory activity” and the “inhibition of the germination of lettuce seeds” value [2] is given as “strongest inhibitory activity”.
With `C=C[C@]1(C)CC[C@@H]2C(=C[C@H]3OC(=O)[C@@]4(C)C(=O)CC[C@@]2(C)[C@@H]34)C1` [Momilactone A] the “Inhibition of chlorophyll content (%)” value ([3]; 1 ppm) was 27.0%, the “Visual injury symptoms (%)” value ([3]; 1 ppm) was 20% and the “Inhibition of chlorophyll content (%)” value ([3]; 3.3 ppm) was 52.3%. For the same compound, the “Visual injury symptoms (%)” value ([3]; 3.3 ppm) was 50%, the “Inhibition of chlorophyll content (%)” value ([3]; 10 ppm) was 85.8% and the “Visual injury symptoms (%)” value ([3]; 10 ppm) was 70%. The “Inhibition of chlorophyll content (%)” value ([3]; 33 ppm) was 95.6%, the “Visual injury symptoms (%)” value ([3]; 33 ppm) was 90% and the “Inhibition of chlorophyll content (%)” value ([3]; 100 ppm) was 98.9%. The “Visual injury symptoms (%)” value ([3]; 100 ppm) was 95%, the “Fresh weight inhibition (%)” value ([4]; 4 ppm) was 0% and the “Germination inhibition (%)” value ([4]; 4 ppm) was 0%. The “Fresh weight inhibition (%)” value ([4]; 20 ppm) was 0%, the “Germination inhibition (%)” value ([4]; 20 ppm) was 0% and the “Fresh weight inhibition (%)” value ([4]; 100 ppm) was 48.4%. For the same compound, the “Germination inhibition (%)” value ([4]; 100 ppm) was 70%, the “Fresh weight inhibition (%)” value ([4]; 1000 ppm) was 100% and the “Germination inhibition (%)” value ([4]; 1000 ppm) was 100%. The “Fresh weight inhibition (%)” value ([5]; 4 ppm) was 0%, the “Germination inhibition (%)” value ([5]; 4 ppm) was 20% and the “Fresh weight inhibition (%)” value ([5]; 20 ppm) was 18.6%. For the same compound, the “Germination inhibition (%)” value ([5]; 20 ppm) was 20%, the “Fresh weight inhibition (%)” value ([5]; 100 ppm) was 33.3% and the “Germination inhibition (%)” value ([5]; 100 ppm) was 30%. For the same compound, the “Fresh weight inhibition (%)” value ([5]; 1000 ppm) was 100%, the “Germination inhibition (%)” value ([5]; 1000 ppm) was 100% and the “Fresh weight inhibition (%)” value ([6]; 4 ppm) was 0%. The “Germination inhibition (%)” value ([6]; 4 ppm) was 20%, the “Fresh weight inhibition (%)” value ([6]; 20 ppm) was 100% and the “Germination inhibition (%)” value ([6]; 20 ppm) was 97.5%. For the same compound, the “Fresh weight inhibition (%)” value ([6]; 100 ppm) was 100%, the “Germination inhibition (%)” value ([6]; 100 ppm) was 100% and the “Fresh weight inhibition (%)” value ([6]; 1000 ppm) was 100%. For the same compound, the “Germination inhibition (%)” value ([6]; 1000 ppm) was 100%.
In the case of `C=C[C@]1(C)CC[C@@H]2C(=C[C@H]3OC(=O)[C@]4(C)[C@H]3[C@]23CC[C@@]4(O)OC3)C1` [Momilactone B], the “Inhibition of chlorophyll content (%)” value ([3]; 1 ppm) is reported as 33.9%, the “Visual injury symptoms (%)” value ([3]; 1 ppm) is reported as 20% and the “Inhibition of chlorophyll content (%)” value ([3]; 3.3 ppm) is reported as 91.9%. The “Visual injury symptoms (%)” value ([3]; 3.3 ppm) was 70%, the “Inhibition of chlorophyll content (%)” value ([3]; 10 ppm) was 98.3% and the “Visual injury symptoms (%)” value ([3]; 10 ppm) was 98%. For the same compound, the “Inhibition of chlorophyll content (%)” value ([3]; 33 ppm) was 100%, the “Visual injury symptoms (%)” value ([3]; 33 ppm) was 100% and the “Visual injury symptoms (%)” value ([3]; 33 ppm, listed as momilactone B) was “complete death”. The “Inhibition of chlorophyll content (%)” value ([3]; 100 ppm) was 100%, the “Visual injury symptoms (%)” value ([3]; 100 ppm) was 100% and the “Visual injury symptoms (%)” value ([3]; 100 ppm, listed as momilactone B) was “complete death”. The “Fresh weight inhibition (%)” value ([4]; 4 ppm) was 23.3%, the “Germination inhibition (%)” value ([4]; 4 ppm) was 100% and the “Fresh weight inhibition (%)” value ([4]; 20 ppm) was 100%. For the same compound, the “Germination inhibition (%)” value ([4]; 20 ppm) was 100%, the “Fresh weight inhibition (%)” value ([4]; 100 ppm) was 100% and the “Germination inhibition (%)” value ([4]; 100 ppm) was 100%. The “Fresh weight inhibition (%)” value ([4]; 1000 ppm) was 100%, the “Germination inhibition (%)” value ([4]; 1000 ppm) was 100% and the “Fresh weight inhibition (%)” value ([5]; 4 ppm) was 12.5%. For the same compound, the “Germination inhibition (%)” value ([5]; 4 ppm) was 15%, the “Fresh weight inhibition (%)” value ([5]; 20 ppm) was 100% and the “Germination inhibition (%)” value ([5]; 20 ppm) was 100%. The “Fresh weight inhibition (%)” value ([5]; 100 ppm) was 100%, the “Germination inhibition (%)” value ([5]; 100 ppm) was 100% and the “Fresh weight inhibition (%)” value ([5]; 1000 ppm) was 100%. For the same compound, the “Germination inhibition (%)” value ([5]; 1000 ppm) was 100%, the “inhibition of germination of all tested weed species” value [7] was “completely inhibited” and the “inhibition of growth of all tested weed species” value [7] was “completely inhibited”. The “Fresh weight inhibition (%)” value ([6]; 4 ppm) was 15%, the “Germination inhibition (%)” value ([6]; 4 ppm) was 23.3% and the “Fresh weight inhibition (%)” value ([6]; 20 ppm) was 100%. For the same compound, the “Germination inhibition (%)” value ([6]; 20 ppm) was 100%, the “Fresh weight inhibition (%)” value ([6]; 100 ppm) was 100% and the “Germination inhibition (%)” value ([6]; 100 ppm) was 100%. The “Fresh weight inhibition (%)” value ([6]; 1000 ppm) was 100%, the “Germination inhibition (%)” value ([6]; 1000 ppm) was 100% and the “inhibition of the growth of rice seedlings” value [8] was “inhibiting the growth of rice seedlings”.
In the case of acetyl momilactone B, the “inhibition of the growth of rice roots” value [1] is listed as “strongest inhibitory activity” and the “inhibition of the germination of lettuce seeds” value [2] is listed as “strongest inhibitory activity”.

Source: US20060160701A1, “Natural herbicidal agent containing momilactones A and B identified in and isolated from rice hulls” (Konkuk University Industrial Cooperation Corp., priority 2005, published 2006)
